# Assay results published in patent US5296367A (priority 1991, dated 1994).
# *1 amine or outer side, *2 acyl side, *3 side chain or, on linkers, in order; H or OH if unused. Where a SMILES comes first, the peptide text is derived from it. CO = O=C([*:1])[*:2]
# Biological target: T1, alkaline proteinase K-16 from Bacillus sp. KSM-K16 (Shouchella clausii, UniProt Q99405)
# T1 construct: made in house; host or cells: Bacillus sp; KSM-K16 (own producer strain, culture)
# T1 sequence (Q99405 112-380): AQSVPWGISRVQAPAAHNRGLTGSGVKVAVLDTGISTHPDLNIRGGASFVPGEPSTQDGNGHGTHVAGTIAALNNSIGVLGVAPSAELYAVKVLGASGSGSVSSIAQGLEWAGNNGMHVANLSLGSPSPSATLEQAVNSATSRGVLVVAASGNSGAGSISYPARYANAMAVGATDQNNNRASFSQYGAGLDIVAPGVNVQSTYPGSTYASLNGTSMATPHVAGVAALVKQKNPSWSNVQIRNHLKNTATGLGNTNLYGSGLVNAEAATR
# Type: biochemical
# Settings: for Residual activity (%): pH 7
compound,measurement,value
chymostatin,Effect of inhibitor on activity (in words),inhibited
same,Residual activity (%),34%
CC(C)[C@H](NC(=O)[C@H](CCCNC(=N)N)NC(=O)N[C@@H](Cc1ccccc1)C(=O)O)C(=O)N[C@H](C=O)CCCNC(=N)N [Antipain] ({Phe-CO}-Arg-Val-Arg-aldehyde),Effect of inhibitor on activity (in words),not inhibited
"O=C(O)CN(CCN(CC(=O)O)CC(=O)O)CC(=O)O [EDTA, Ethylenediaminetetraacetic acid]",Effect of inhibitor on activity (in words),not inhibited
"O=S(=O)(F)Cc1ccccc1 [PMSF, Phenylmethanesulfonyl fluoride]",Effect of inhibitor on activity (in words),inhibited
same,Residual activity (%),1.5%
